Experimental findings from BindingDB's records for doi:10.7270/Q2X928QK (University of Pittsburgh, 2007) are described below.

This assay addresses T1, M-phase inducer phosphatase 2 (Homo sapiens, UniProt P30305).
T1 sequence (P30305 whole entry): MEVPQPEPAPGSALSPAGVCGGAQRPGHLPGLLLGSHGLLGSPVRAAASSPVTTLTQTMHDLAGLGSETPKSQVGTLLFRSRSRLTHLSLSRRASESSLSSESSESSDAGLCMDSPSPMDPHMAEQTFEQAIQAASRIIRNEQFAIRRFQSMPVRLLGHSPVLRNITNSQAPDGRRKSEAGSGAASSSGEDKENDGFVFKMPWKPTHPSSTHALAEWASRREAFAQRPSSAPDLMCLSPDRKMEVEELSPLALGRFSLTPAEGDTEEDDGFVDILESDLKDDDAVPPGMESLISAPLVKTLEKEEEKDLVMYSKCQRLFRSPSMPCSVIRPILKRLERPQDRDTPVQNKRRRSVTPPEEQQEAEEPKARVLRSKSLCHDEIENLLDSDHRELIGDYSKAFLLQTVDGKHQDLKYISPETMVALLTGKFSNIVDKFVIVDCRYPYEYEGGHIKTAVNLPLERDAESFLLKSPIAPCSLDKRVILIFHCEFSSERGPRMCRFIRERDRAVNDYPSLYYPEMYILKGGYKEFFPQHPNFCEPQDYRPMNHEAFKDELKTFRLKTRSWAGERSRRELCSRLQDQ
Briefly: Cdc25B catalytic domain inhibition plus catalase – biochemical, catalase present, probe assessment, dose response (AID 668).

For the compound `O=C(Nc1ccc2nc(-c3ccco3)c(-c3ccco3)nc2c1)N1CCCCCC1`, the IC50 amounted to 22.4 µM.
Then `Cc1ccc2c(c1C)NC(C(=O)O)C1CC=CC21` (stereo not given), with 7.12 µM.
As for `O=C(O)C1Nc2c(O)cccc2C2C=CCC12` (stereo not given), the IC50 came to 11 µM.
Next, `Cn1ncnc2c(=O)n(C)c(=O)nc1-2`: 23 µM; `[O-]/[N+](=C\c1ccncc1)c1ccccc1`: over 50 µM.
On to `O=C1C=Cc2ccccc2C1=O` [1,2-dihydronaphthalene-1,2-dione], for which the IC50 is 25.4 µM.
Next, `CCn1nc(-c2ccccc2)nc2c(=O)n(C)c(=O)nc1-2` [1-Ethyl-6-methyl-3-phenyl-1H-pyrimido[5,4-e][1,2,4]triazine-5,7-dione]: 20 µM; `[O-]/[N+](=C\c1ccc(OC(F)F)cc1)c1ccccc1` [1-[4-(difluoromethoxy)phenyl]-N-phenylmethanimine oxide]: over 50 µM; `CCn1nc(-c2cccs2)nc2c(=O)n(C)c(=O)nc1-2` [1-ethyl-6-methyl-3-thiophen-2-yl-pyrimido[5,4-e][1,2,4]triazine-5,7-dione]: over 50 µM.
Take `O=C1Cc2ccccc2C(=O)N1CCc1ccccc1` [2-(2-phenylethyl)-4H-isoquinoline-1,3-dione]: the IC50 amounted to 48.9 µM.
Next, `N#Cc1c(N)sc(=S)c2c1CCN(Cc1ccccc1)C2` [3-Amino-7-benzyl-1-thioxo-5,6,7,8-tetrahydro-1H-thiopyrano[3,4-c]pyridine-4-carbonitrile]: 14.1 µM; `Cc1ccccc1Nc1cc2ccccc2c(O)n1` [3-[(2-methylphenyl)amino]-2H-isoquinolin-1-one]: 45 µM.
Consider `COc1ccc(Br)cc1C=c1sc2nc(-c3ccco3)nn2c1=O` [5-[(5-bromanyl-2-methoxy-phenyl)methylidene]-2-(furan-2-yl)-[1,3]thiazolo[3,2-b][1,2,4]triazol-6-one], for which the IC50 was found to be 4.2 µM.
Next, `CC(=O)Nc1cc(OC(C)=O)c2nonc2c1OC(C)=O` [Acetic acid 7-acetoxy-5-acetylamino-benzo[1,2,5]oxadiazol-4-yl ester]: over 50 µM.
Then `CCOC(=O)C(C(=O)OCC)c1cc(Br)c2noc3c2c1C(=O)c1ccccc1-3` [MLS000038842], with over 50 µM.
For the compound `Oc1nc(Nc2ccccc2)cc2ccccc12` [MLS000043701], the IC50 was 45.8 µM.
As for `Cc1c(N=c2c(=O)c3ccccc3c2=O)c(=O)n(-c2ccccc2)n1C` [MLS000105950], the IC50 is over 50 µM.
As to `CCOc1ccc2noc3c2c1C(=O)c1ccccc1-3` [MLS000106837], the IC50 is over 50 µM.
Next, `COc1ccc2noc3c2c1C(=O)c1ccccc1-3` [MLS000106874]: over 50 µM.
Then `Cc1ccc2c(c1)C1C=CCC1C(C(=O)O)N2` (stereo not given) [MLS-0067149.0001], with 7.35 µM; and `O=C(NC1(O)C(=O)c2ccccc2C1=O)c1ccccc1` [N-(2-hydroxy-1,3-dioxo-2-indenyl)benzamide], with over 50 µM.
Regarding `COc1cccc2c1NC(C(=O)O)C1CC=CC21` (stereo not given) [SMR000009698], the IC50 was found to be 6.18 µM.
Next, `O=C(OC1CCCCC1)c1ccc2c(c1)C1C=CCC1C(C(=O)O)N2` (stereo not given) [SMR000019385]: 3.8 µM.
Then `N#Cc1c(N2CCCC2)nc(N)c2c(N)nc(N3CCCC3)cc12` [SMR000061605], with over 50 µM; and `Nc1cccc2cnccc12` [isoquinolin-5-amine], with over 50 µM.
